# Results from patent US20150030583A1, “Methods of Treating Serosal Cancer” (SLOAN KETTERING INSTITUTE FOR CANCER RESEARCH, priority 2011, published 2015).
# pIC50: −log10 of the molar value. Where two headings read alike, the source gives them in different places.
# Legend:
# Ovcar3-GTL catenae = assay: Ovcar3-GTL catena drug sensitivity / proliferation screen (alamarBlue, 384-well); conditions: for Increased Resistance of catena: catena with established glycocalyx versus monolayers
# Method: Cells were resuspended in M5-FCS to produce homogenous cultures of single cells which were seeded in 50 μL aliquots per well at the indicated cell densities and grown for the indicated times before addition of test compounds or other reagents.
# For these experiments, 25 Ovcar3-GTL catena or 250 Ovcar3-GTL catena cells were seeded per well as described above. […] Five days after adding the test compound, alamarBlue® was added to the cultures and culture absorbance was measured 48 hours later.
# The assays were conducted on catena cells with or without a glycocalyx coat and the IC50 values were determined.
# Each compound was tested against three cellular entities (catena cells with or without the coat and established tumor spheroids) at 5 μM, 0.2 μM and 0.008 μM of compounds (with replicates).
# [1] = test system: established tumor spheroids; assay: Established tumor spheroid drug sensitivity (alamarBlue)
# Method: The effect of these 29 compounds were also tested on established tumor spheroids. For these assays, 100 spheroid forming cells were seeded in 384-well plates and cultured for 11 days to allow the formation of tumor spheroids before adding drugs. Five days after adding the compound the cells were stained with alamarBlue and scored as above.
# [2] = test system: Ovcar3 monolayer (epithelial) cells; assay: Ovarian cancer monolayer drug sensitivity (alamarBlue), Ovcar3; format: cell-based; conditions: for IC50: 100 cells seeded, drugs added 4 days after seeding, read-out: IC50 (μM) Ovcar3 monolayer
# Method: (§1) The foregoing total of 29 compounds were tested in parallel on ovarian cancer monolayer cells by seeding 100 Ovcar3 monolayer (epithelial) or 25 Ovcar5 monolayer (mesenchymal) cells in 384-well plates. Drugs were added 4 days after cell seeding and cell viability was analyzed by alamarBlue staining. In general, catena cells with an established glycocalyx were on average 4-8 fold more resistant to these compounds when compared to monolayers. […]
# [3] = test system: Ovcar5 monolayer (mesenchymal) cells; assay: Ovarian cancer monolayer drug sensitivity (alamarBlue), Ovcar5; format: cell-based; conditions: for IC50: 25 cells seeded, drugs added 4 days after seeding, read-out: IC50 (μM) Ovcar5 monolayer
# Method: as §1
# catena cells [4] = assay: Morphological observation of treated catenae under the microscope; format: cell-based; conditions: for cells seen in cultures treated with high concentrations of compounds: 100 μM (rapamycin 25 μM, lovastatin acid 50 μM), cells re-entered the cell cycle without drug
# catena cells [5] = assay: Combination drug screening: paclitaxel after PEGylated enzyme treatment; format: cell-based
# Method: Twenty-five […] seeded into 384-well plates. After 5 days, cells were treated with either PEGylated hyaluronidase, PEGylated collagenase or both for 10 minutes at 37° C. Without removing the enzymes, paclitaxel was added over a series of dilutions, followed by alamarBlue addition on day 9 with absorbance measured two days later.
# [6] = test system: low molecular weight complex of collagen and hyaluronan; assay: Western blot (anti-COL1A2) of catena culture supernatant; format: biochemical
# Excerpt: The glycocalyx of the catena has two major components, i.e., hyaluronan and collagen, which interact and form a stable complex. […] Briefly, the supernatant fraction of catena cell cultures was separated from the cells by centrifugation. The supernatant was run in an SDS-PAGE gel and blotted with the anti-COL1A2 antibody. This complex was sensitive to hyaluronidase treatment but was not affected by collagenase type 1, 2 or 4 treatment. This hyaluronan-collagen complex could be important for the formation of catena glycocalyx and drug resistance or metastatic potential conferred to catena cells by the glycocalyx.
# catena cells [7] = assay: Growth of catena cells upon disruption of the glycocalyx; format: cell-based
# Method: To investigate the how catena cells grow upon disruption of the glycocalyx, catenae were dissociated to single cells with hyaluronidase treatment and plated in tissue culture treated flasks with or without 10% hyaluronidase enzyme solution (10 mg/ml) to prevent the formation of glycocalyx. In parallel, catenae were dissociated mechanically and plated in the absence of hyaluronidase.
# catena cells [8] = assay: In vitro clonogenicity assay of catena cells; format: cell-based; conditions: enzyme included in the clonogenic assay; attached cells
# Excerpt: Catena cells were dissociated with hyaluronidase, allowed to attach to tissue culture plates and grown in the presence hyaluronidase for 7 days. Under these conditions, cells remained attached to tissue culture plates. The cells were harvested and subjected to an in vitro clonogenicity assay in the presence and absence of hyaluronidase. In parallel, mechanically-dissociated catena were subjected to the in vitro clonogenicity assay in the presence and absence of hyaluronidase.
# [9] = Viscosity of catena culture supernatant after enzyme treatment; conditions: a few drops 10 mg/mL enzyme
# Method: In contrast, Ovcar3-GTL epithelial cells were 98% positive for CA125 by FACS and secreted 800 units/ml of CA125 into culture media. For the ELISA, cell supernatants were collected by spinning the cultures at 300×g for 5 min to remove cells and assayed by CA125 ELISA using an automated instrument, ADVIA Centaur XP Immunoassay System (Siemens Healthcare Diagnostics Inc.).
# Hyaluronan is a glycosaminoglycan found in extracellular matrix and functions to provide microenvironmental cues in a number of biological processes, including tumor development [Toole, 2004]. Supernatants prepared as above were treated with a few drops 10 mg/mL hyaluronidase (Sigma) in deionized water.
# [10] = test system: glycocalyx surrounding a catena; assay: Particle exclusion experiment with red blood cells; format: cell-based; conditions: brief incubation with enzyme, RBCs overnight
# Method: To visualize the glycocalyx surrounding a catena, a particle exclusion experiment was conducted using red blood cells (RBCs). Catenae were mechanically dissociated by pipetting or by brief incubation with hyaluronidase as before. RBCs from human peripheral blood were added and the mixture was incubated overnight in culture media. The cells were observed under the light microscope for the presence of a glycocalyx separating catena cells from the RBCs.
# [11] = read-out: IC50 (μM) Addition on Day 1, Ovcar3-GTL catenae, compound added one day after seeding (cells predominantly lacking a glycocalyx)
# [12] = read-out: IC50 (μM) Addition on Day 6, Ovcar3-GTL catenae, compound added six days after seeding (established or substantial glycocalyx)
molecule,measurement,setting,value
COc1cc2c(cc1OC)[C@@H]1C(=O)c3ccc4c(c3O[C@@H]1CO2)C=CC(C)(C)O4 [deguelin],IC50,"Ovcar3-GTL catenae; 24 h, read-out: IC50 (μM) Addition on Day 1",25 nM
same,IC50,"Ovcar3-GTL catenae; 144 h, read-out: IC50 (μM) Addition on Day 6",25 nM
same,pIC50,[1]; read-out: spheroid IC50,6.40
same,additional resistance conferred by spheroid formation,[1]; spheroid versus catena IC50,15 fold
C/C(=C\c1csc(C)n1)[C@@H]1C/C=C(/C(F)(F)F)C/C=C/[C@H](C)[C@H](O)[C@@H](C)C(=O)C(C)(C)[C@@H](O)CC(=O)O1 [fludelone],IC50,[2],0.0008 µM
same,IC50,[3],0.0004 µM
same,Increased Resistance of catena,Ovcar3-GTL catenae,"125,000 fold"
same,IC50,Ovcar3-GTL catenae; [11],≤ 0.012 nM
same,IC50,Ovcar3-GTL catenae; [12],> 100000 nM
same,cells seen in cultures treated with high concentrations of compounds,catena cells [4],"live, large single cells, i.e., cells arrested at mitosis"
CC(=O)O[C@H]1C(=O)[C@@]2(C)[C@H]([C@H](OC(=O)c3ccccc3)[C@]3(O)C[C@H](OC(=O)[C@H](O)[C@@H](NC(=O)c4ccccc4)c4ccccc4)C(C)=C1C3(C)C)[C@]1(OC(C)=O)CO[C@@H]1C[C@@H]2O [paclitaxel],IC50,"[2]; Homo sapiens, OVCAR-3, 96 h",0.025 µM
same,pIC50,"[2]; Homo sapiens, OVCAR-3, subnanomolar to no more than 50 nM, read-out: IC50 Ovcar3 monolayer cells",≥ 7.30
same,IC50,"[3]; Homo sapiens, OVCAR-5, 96 h",0.025 µM
same,pIC50,"[3]; Homo sapiens, OVCAR-5, subnanomolar to no more than 50 nM, read-out: IC50 Ovcar5 monolayer cells",≥ 7.30
same,IC50,"Ovcar3-GTL catenae; 24 h, read-out: IC50 (μM) Addition on Day 1, Ovcar3-GTL catenae, compound added one day after seeding (cells predominantly lacking a glycocalyx)",≤ 0.012 nM
same,IC50,"Ovcar3-GTL catenae; 144 h, read-out: IC50 (μM) Addition on Day 6, Ovcar3-GTL catenae, compound added six days after seeding (established or substantial glycocalyx)",> 100000 nM
same,IC50,"Ovcar3-GTL catenae; Homo sapiens, OVCAR-3, read-out: IC50 (μM) Ovcar3 catena, catena cells with an established glycocalyx (Table D)",> 100000 nM
same,Increased Resistance of catena,Ovcar3-GTL catenae,"4,000 fold"
same,decrease of paclitaxel IC50 after PEGylated hyaluronidase,catena cells [5]; enzyme 10 min at 37° C. on day 5 before paclitaxel,2.5 fold
same,decrease of paclitaxel IC50 after combination of PEGylated hyaluronidase and PEGylated collagenase,catena cells [5]; enzymes 10 min at 37° C. on day 5 before paclitaxel,16 fold
same,cells seen in cultures treated with high concentrations of compounds,catena cells [4],"live, large single cells, i.e., cells arrested at mitosis"
hyaluronidase,effect on hyaluronan-collagen complex (less than 20 kDa),[6],sensitive
same,"growth of catena cells, continuous enzyme treatment",catena cells [7]; 10% enzyme solution (10 mg/ml) in culture,attached to tissue culture plates and formed epithelial and mesenchymal monolayers
same,"growth of catena cells, brief enzyme treatment, plated without enzyme",catena cells [7]; dissociated to single cells with enzyme,no longer formed free floating chains but rather proliferated as irregular aggregates in suspension
same,colony size in clonogenic assay,catena cells [8],further reduced
same,viscosity of culture supernatant,[9],rapidly reduced the viscosity
same,glycocalyx coat in RBC particle exclusion,[10],completely lacked a glycocalyx
same,morphological change of treated catenae,"catena cells [4]; microscope observation, listed as non-PEGylated hyaluronidase",caused aggregation of catena cells
iso-oxazole-fludelone,IC50,[2],0.05 µM
same,IC50,[3],0.012 µM
same,Increased Resistance of catena,Ovcar3-GTL catenae,"2,000 fold"
same,Increase in Resistance Day6/Day 1,"Ovcar3-GTL catenae; ratio of IC50 day 6 to day 1, Ovcar3-GTL catenae","33,333 fold"
same,IC50,Ovcar3-GTL catenae; [11],3 nM
same,IC50,Ovcar3-GTL catenae; [12],> 100000 nM
same,cells seen in cultures treated with high concentrations of compounds,catena cells [4],"live, large single cells, i.e., cells arrested at mitosis"
